Calls of active or inactive are those of the source. Cut-off read from the data, not from the text of the source, for most assays here: actives have a measured EC50 and inactives only a lower limit.

One test concerns the target T1, Aminopeptidase N (Plasmodium falciparum FcB1/Columbia, UniProt O96935).
T1 sequence (O96935 whole entry): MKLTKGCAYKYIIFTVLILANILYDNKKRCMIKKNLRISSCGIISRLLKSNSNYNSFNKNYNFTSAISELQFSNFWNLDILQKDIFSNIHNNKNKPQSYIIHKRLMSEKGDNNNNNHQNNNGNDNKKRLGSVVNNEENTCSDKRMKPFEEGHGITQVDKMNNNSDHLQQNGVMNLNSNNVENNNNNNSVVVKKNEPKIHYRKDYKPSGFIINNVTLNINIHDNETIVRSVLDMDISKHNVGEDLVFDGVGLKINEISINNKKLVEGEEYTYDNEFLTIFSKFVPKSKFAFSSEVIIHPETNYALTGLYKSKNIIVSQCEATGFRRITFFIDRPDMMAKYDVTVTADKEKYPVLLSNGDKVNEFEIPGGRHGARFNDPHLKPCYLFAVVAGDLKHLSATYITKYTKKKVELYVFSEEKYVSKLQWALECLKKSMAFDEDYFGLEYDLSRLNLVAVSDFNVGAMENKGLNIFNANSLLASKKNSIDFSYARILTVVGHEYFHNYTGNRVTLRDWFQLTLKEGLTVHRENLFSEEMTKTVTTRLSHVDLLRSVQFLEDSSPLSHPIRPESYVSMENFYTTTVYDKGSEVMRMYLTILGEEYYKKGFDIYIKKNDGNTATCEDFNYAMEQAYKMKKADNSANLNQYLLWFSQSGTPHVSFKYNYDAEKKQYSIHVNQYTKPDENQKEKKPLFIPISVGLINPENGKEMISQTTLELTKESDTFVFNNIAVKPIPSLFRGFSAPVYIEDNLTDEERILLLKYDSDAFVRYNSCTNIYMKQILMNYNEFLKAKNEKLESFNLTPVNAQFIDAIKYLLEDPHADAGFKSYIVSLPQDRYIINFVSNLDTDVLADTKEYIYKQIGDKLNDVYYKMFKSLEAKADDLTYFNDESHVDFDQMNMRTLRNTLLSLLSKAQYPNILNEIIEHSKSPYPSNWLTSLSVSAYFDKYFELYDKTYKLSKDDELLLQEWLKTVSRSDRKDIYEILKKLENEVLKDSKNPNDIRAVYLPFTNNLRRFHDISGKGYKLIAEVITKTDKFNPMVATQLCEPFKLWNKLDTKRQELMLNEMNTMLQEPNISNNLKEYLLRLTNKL
In words: malaria alanyl aminopeptidase activity blockers – biochemical, fluorogenic H-Leu-NHMec substrate, 1536-well (AID 1445). More on the design: species or system Plasmodium falciparum 3D7, 3D7.

Test [1] can be described thus: Luminescence Cell-Based Dose Confirmation HTS to Identify Activators of 5'UTR Stem-Loop Driven Alpha-Synuclein mRNA Translation in H4 Neuroglioblastoma Cells. [Related pubchem assays: 1829 (Project Summary), 1814 (Primary HTS)]. Type of test: functional.
Test [2] can be described thus: Luminescence Cell-Based Dose Response HTS to Identify Activators of Luciferase Translation or Activity in H4 […] Cells. [Related pubchem assays: 1829 (Project Summary), 1814 (Primary HTS)]. It counts as functional.
In the next test the test system is H4. In words: Luminescence Cell-Based Dose Response HTS to Identify Activators of 5'UTR Stem-Loop Driven Prion Protein mRNA Translation in H4 Neuroglioblastoma Cells. [Related pubchem assays: 1829 (Project Summary), 1814 (Primary HTS)]. Conditions: Homo sapiens. It counts as functional.
Test [3] addresses T2, Histone-lysine N-methyltransferase NSD2 (Homo sapiens, UniProt O96028).
T2 sequence (O96028 whole entry): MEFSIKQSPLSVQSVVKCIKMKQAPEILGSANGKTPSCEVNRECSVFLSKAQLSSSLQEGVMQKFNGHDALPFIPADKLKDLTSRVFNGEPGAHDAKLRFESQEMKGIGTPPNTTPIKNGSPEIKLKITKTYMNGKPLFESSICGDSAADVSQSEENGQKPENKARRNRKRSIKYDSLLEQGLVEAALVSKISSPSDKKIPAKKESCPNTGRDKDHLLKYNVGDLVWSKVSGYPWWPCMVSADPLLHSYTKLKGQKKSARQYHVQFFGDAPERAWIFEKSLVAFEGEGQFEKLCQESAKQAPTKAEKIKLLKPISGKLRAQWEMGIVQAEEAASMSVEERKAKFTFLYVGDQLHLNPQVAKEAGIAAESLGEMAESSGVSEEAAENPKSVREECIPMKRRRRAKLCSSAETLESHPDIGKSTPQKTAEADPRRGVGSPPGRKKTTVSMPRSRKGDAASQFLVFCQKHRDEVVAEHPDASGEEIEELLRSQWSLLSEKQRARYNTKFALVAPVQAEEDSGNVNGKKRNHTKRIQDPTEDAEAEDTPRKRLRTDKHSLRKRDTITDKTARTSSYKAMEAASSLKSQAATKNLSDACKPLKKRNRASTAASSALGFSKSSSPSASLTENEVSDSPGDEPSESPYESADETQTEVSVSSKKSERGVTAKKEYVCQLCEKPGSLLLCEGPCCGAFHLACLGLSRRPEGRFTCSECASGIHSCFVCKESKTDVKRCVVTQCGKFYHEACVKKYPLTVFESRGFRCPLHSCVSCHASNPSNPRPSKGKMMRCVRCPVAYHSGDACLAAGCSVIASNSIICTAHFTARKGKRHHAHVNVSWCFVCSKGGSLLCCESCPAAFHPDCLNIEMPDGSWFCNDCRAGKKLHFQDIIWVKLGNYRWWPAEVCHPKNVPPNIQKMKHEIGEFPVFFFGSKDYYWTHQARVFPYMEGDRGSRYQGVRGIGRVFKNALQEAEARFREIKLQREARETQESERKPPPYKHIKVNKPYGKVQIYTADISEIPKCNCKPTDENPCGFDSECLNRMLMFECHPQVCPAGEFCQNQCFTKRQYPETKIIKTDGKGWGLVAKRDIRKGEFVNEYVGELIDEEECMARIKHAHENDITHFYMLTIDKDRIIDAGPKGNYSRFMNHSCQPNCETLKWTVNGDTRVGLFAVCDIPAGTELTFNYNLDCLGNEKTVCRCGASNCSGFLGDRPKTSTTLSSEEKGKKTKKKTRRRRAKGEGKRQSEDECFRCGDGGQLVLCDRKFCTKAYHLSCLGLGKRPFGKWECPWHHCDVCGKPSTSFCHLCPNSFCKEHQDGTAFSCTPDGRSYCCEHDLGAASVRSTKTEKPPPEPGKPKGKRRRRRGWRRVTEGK
It counts as biochemical.

The next test has as its target T3, Protein skinhead-1 (Caenorhabditis elegans, UniProt P34707).
T3 sequence (P34707 whole entry): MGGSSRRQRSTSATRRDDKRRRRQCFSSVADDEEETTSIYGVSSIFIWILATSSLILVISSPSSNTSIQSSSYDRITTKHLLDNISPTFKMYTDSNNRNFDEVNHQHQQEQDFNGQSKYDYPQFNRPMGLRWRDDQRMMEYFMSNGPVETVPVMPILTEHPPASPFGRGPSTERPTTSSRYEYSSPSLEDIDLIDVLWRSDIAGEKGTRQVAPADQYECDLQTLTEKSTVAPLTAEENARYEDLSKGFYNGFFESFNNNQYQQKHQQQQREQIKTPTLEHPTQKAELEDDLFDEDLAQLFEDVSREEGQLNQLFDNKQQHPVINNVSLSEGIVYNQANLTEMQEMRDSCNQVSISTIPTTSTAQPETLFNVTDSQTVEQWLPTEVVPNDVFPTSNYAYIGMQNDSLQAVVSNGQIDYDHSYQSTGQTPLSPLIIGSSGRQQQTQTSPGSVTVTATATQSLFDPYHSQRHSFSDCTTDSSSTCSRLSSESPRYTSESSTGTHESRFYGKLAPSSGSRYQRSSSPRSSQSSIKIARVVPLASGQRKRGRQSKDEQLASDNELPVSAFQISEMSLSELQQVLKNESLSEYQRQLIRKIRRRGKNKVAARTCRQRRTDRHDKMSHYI
It counts as functional.

The target in test [4] is Luciferin 4-monooxygenase (Photinus pyralis, UniProt P08659). The test is described as follows: Counter Screen for Luciferase-based Assay Positives. [Related pubchem assays: 620, 618, 411 ].
The test system of a further test is HT-1080. The test is described as follows: HT1080 cell viability loss – fluorescence readout (AID 620). Conditions: Homo sapiens. It counts as functional, cell-based.
A short description of test [5]: luciferase reporter signal suppression in cells – H4 neuroglioma cells, luminescence, dose response (AID 1990). Type of test: functional, cell-based. Background: In a reporter assay the amount or activity of a reporter protein is the signal.
Test [6] is described as follows: Luminescence Cell-Based Dose Response HTS to Identify Inhibitors of 5'UTR Stem-Loop Driven Prion Protein mRNA Translation in H4 Neuroglioblastoma Cells. [Related pubchem assays: 1827 (Project Summary), 1813 (Primary HTS)]. Type of test: functional.
For test [7], the target named is T4, Heat shock factor protein 1 (Mus musculus, UniProt P38532).
T4 sequence (P38532 whole entry): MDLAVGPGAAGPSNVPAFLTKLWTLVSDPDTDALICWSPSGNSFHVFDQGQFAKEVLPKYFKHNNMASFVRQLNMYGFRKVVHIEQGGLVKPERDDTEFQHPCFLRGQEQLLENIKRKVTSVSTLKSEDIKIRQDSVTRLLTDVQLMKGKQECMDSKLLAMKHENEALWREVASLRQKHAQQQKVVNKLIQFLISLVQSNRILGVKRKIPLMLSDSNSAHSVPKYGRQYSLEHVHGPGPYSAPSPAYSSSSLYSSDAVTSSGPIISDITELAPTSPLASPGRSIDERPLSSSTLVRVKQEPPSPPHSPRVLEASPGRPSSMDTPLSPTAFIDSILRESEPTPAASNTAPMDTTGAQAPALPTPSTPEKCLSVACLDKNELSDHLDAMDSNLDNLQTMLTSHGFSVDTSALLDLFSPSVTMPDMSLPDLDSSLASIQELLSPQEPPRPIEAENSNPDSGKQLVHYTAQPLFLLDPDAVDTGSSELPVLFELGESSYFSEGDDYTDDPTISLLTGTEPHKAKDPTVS
The test is described as follows: decrease of HSF1-responsive luciferase luminescence – cell-based, NIH3T3, dose retest, confirmation (AID 2382).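 Note: NIH3T3 fibroblasts with HSF1-driven luciferase reporter stressed by proteasome inhibitor MG132; luminescence from HSF1-driven luciferase expression after 8 hours of MG132 stress.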 It counts as functional.

Test [8] can be described thus: alpha-synuclein stem-loop luciferase translation blockers – H4 neuroglioma cells, luminescence, confirmation (AID 1988). It counts as functional, cell-based.
The target of test [9] is Induced myeloid leukemia cell differentiation protein Mcl-1 (Homo sapiens, UniProt Q07820). It counts as functional.
Test [10] addresses T5, Rac GTPase-activating protein 1 (Homo sapiens, UniProt Q9H0H5).
T5 sequence (Q9H0H5 whole entry): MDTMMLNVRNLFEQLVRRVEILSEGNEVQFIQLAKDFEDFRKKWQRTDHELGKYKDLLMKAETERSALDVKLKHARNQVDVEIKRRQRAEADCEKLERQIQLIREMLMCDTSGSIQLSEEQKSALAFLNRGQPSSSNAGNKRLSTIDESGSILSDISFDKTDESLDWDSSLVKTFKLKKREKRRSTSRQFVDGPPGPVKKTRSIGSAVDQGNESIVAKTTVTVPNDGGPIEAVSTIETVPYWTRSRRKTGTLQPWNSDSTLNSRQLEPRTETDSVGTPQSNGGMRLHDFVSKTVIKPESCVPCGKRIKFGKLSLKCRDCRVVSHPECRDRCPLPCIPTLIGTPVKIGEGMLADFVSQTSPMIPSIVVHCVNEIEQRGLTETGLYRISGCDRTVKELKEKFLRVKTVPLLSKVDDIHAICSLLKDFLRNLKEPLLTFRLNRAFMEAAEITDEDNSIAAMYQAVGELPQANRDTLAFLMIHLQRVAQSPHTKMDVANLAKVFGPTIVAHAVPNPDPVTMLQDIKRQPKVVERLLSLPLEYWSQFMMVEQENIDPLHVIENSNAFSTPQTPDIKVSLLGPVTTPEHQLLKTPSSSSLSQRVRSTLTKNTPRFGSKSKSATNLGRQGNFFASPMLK
In words: blockers of MgcRacGAP-driven Rac1 GTP hydrolysis – biochemical, ADP Hunter fluorescence, primary and confirmatory, confirmation (AID 624330). It counts as functional.

Chain of Luciferin 4-monooxygenase (P08659 whole entry): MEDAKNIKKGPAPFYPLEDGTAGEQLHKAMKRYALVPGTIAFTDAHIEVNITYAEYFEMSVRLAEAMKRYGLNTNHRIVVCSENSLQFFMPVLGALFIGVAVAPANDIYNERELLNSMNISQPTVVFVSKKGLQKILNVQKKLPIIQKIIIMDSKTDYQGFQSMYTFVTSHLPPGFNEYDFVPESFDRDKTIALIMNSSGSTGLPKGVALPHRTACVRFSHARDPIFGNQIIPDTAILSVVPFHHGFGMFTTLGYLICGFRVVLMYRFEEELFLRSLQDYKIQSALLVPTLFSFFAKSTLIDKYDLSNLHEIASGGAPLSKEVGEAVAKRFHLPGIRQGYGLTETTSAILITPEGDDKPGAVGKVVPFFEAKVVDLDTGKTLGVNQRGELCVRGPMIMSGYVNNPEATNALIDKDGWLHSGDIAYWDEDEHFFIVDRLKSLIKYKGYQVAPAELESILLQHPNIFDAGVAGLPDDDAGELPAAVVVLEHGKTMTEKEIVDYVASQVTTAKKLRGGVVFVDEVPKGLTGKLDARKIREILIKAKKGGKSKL
Chain of Induced myeloid leukemia cell differentiation protein Mcl-1 (Q07820 whole entry): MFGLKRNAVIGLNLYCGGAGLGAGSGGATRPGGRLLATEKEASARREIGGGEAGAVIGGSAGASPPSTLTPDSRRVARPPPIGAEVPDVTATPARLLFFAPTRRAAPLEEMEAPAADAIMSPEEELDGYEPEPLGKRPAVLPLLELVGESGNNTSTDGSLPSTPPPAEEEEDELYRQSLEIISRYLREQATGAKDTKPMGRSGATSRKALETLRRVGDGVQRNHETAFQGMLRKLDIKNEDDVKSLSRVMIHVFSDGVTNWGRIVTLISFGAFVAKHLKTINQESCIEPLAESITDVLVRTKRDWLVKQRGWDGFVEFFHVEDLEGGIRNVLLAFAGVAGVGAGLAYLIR

In general, IC50 refers to the concentration at which inhibition is half-maximal. Turning to `Cc1ccc(C(=O)NC2CCN(CC(=O)Nc3cccc([N+](=O)[O-])c3)CC2)cc1`, on Aminopeptidase N, the IC50 is 102 µM (active).
One may read the EC50 as the concentration needed to bring the measured effect to its halfway point. The term AC50 denotes the concentration giving half of the maximal activity seen. `CCCCN(CC)CCNC(=O)c1cc2c(-c3ccccc3F)nn(C)c2s1`: the values for the EC50 (in test [1]; in [2]; with H4) were 8.55 µM (active), > 120 µM (not active) and > 120 µM (not active), respectively. In addition, in test [3], the AC50 is > 20 µM (inactive).
For `Cc1cccc(-n2nc3c(c2NC(=O)C2CC2)CS(=O)(=O)C3)c1C`, the EC50 (in [1]; in test [2]; in the test on H4) was > 120 µM (not active) throughout. Besides, on Protein skinhead-1, the IC50 was > 100 µM (inactive).
`CCOc1ccc(-c2nnc(-c3ccco3)o2)cc1`: the 50% effective concentration (EC50) is < 0.2 µM (active) in [4] and > 50 µM (not active) in the test on HT-1080. Also, the IC50 at Protein skinhead-1 was 28.9 µM (active).
As to `O=C(Nc1ccc2oc(-c3ccccc3)nc2c1)c1cccs1`, the EC50 in [1] is < 0.1 µM (active); in test [2], 0.131 µM (active); in the test on H4 it was > 120 µM (not active).
With `O=C(O)CCSc1nnc(-c2ccc3c(c2)OCO3)o1`, the EC50 in [5] was 8.07 µM (active); in test [4], 27.7 µM (active); in [6], > 120 µM (not active); in test [7], 3.01 µM (active); in [8], 10.6 µM (active); in the test on HT-1080, > 50 µM (not active).
In the case of `Cc1ccc2c(c1)c(C)c(C)n2CC(O)Cn1nnc2ccccc21` (centres undefined), the EC50 in test [1] was 20.9 µM (active); in test [2] it was 63.4 µM (active); in the test on H4 it was 22.3 µM (active); in test [7] it was > 195 µM (not active). Besides, the IC50 on Protein skinhead-1 was > 100 µM (inactive).
With `Cc1ccc(N2CC(C(=O)Nc3ccc(N(C)C)cc3)CC2=O)cc1C` (centres undefined), the IC50 in test [9] was 3.29 µM (not active); in test [10], 54.2 µM (active).
Regarding `CCCCN1C(=O)NC(=O)/C(=C(/C)NNC(=O)Nc2ccccc2)C1=O`, the EC50 in [1] is > 120 µM (not active); in test [2], 14.3 µM (active); in the test with H4, > 120 µM (not active).
For `CO/C(O)=C1\CSC\C1=N\c1ccccc1NC(=O)c1ccccc1C(=O)O`, the EC50 is > 120 µM (not active) in [1], > 120 µM (not active) in test [2] and 119 µM (active) in the test with H4.

For the origin of these results see ChEMBL document CHEMBL1201862, “PubChem BioAssay data set” (2004).
